Molecular target: T1, JNK1α1 (Homo sapiens, UniProt P45983)
T1 construct: catalytic domain containing amino acids 1-364 and N-terminal hexahistidine tag; hexahistidine (His6) (N); made in house; host or cells: E. coli BL21 (DE3)
Assay: Coupled spectrophotometric (PK/LDH) JNK1α1 assay: % inhibition and Ki determination
Type: biochemical
Details: @1 uM; read-out: % Inhibition JNK-1
Summary of the method: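 Initial rates were taken from the absorbance decrease at 340 nm at 30° C. Ki was fitted with a tight-binding model over 11 concentrations (top 100 μM); single-point inhibition was tested at 1 or 10 μM.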

T1 sequence (P45983 1-364): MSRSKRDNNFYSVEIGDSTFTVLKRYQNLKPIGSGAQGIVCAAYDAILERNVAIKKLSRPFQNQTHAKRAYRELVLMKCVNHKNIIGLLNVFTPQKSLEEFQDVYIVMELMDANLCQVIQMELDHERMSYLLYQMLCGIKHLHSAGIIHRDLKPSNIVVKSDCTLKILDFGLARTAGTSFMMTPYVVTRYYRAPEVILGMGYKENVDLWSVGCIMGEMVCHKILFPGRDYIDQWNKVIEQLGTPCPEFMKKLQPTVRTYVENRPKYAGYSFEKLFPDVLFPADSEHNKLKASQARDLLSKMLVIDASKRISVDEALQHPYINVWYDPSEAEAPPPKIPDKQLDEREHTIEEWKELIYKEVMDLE

Row | Compound | inhibition at 1 µM
1 | O=C(N[C@H](CO)Cc1ccccc1)c1ccc2cnc(NC3CCC3)nc2c1 [Example 420, N-[(1S)-1-benzyl-2-hydroxyethyl]-2-(cyclobutylamino)quinazoline-7-carboxamide] | 21%
2 | O=C(NC1(CO)CCCC1)c1ccc2cnc(NC3CCCC3)nc2c1 [Example 421, 2-(cyclopentylamino)-N-[1-(hydroxymethyl)cyclopentyl]quinazoline-7-carboxamide] | 15%
3 | O=C(NC1(CO)CCCC1)c1ccc2cnc(NC3CCC3)nc2c1 [Example 422, 2-(cyctobutylamino)-N-[1-(hydroxymethyl)cyclopentyl]quinazoline-7-carboxamide] | 13%
4 | CC(C)Nc1ncc2ccc(C(=O)NC3(CO)CCCC3)cc2n1 [Example 423, N-[1-(hydroxymethyl)cyclopentyl]-2-(isopropylamino)quinazoline-7-carboxamide] | 15%
5 | CC(C)[C@@H](CO)NC(=O)c1ccc2cnc(NC3CCC3)nc2c1 [Example 424, 2-(cyclobutylamino)-N-[(1S)-1-(hydroxymethyl)-2-methylpropyl]quinazoline-7-carboxamide] | 22%

Second part, the compound after the results:

Row | inhibition at 1 µM | Compound
6 | 11% | CC(C)Nc1ncc2ccc(C(=O)N[C@H](CO)C(C)C)cc2n1 [Example 425, N-[(1S)-1-(hydroxymethyl)-2-methylpropyl]-2-(isopropylamino)quinazoline-7-carboxamide]
7 | 23% | O=C(NCCO)c1ccc2cnc(NC3CCCCC3)nc2c1 [Example 426, 2-(cyclohexylamino)-N-(2-hydroxyethyl)quinazoline-7-carboxamide]
8 | 21% | O=C(NCCO)c1ccc2cnc(NC3CCCC3)nc2c1 [Example 427, 2-(cyclopentylamino)-N-(2-hydroxyethyl)quinazoline-7-carboxamide]
9 | 17% | O=C(N[C@H](CO)CC1CCCCC1)c1ccc2cnc(NC3CCC3)nc2c1 [Example 428, 2-(cyclobutylamino)-N-[(1S)-2-cyclohexyl-1-(hydroxymethyl)ethyl]quinazoline-7-carboxamide]
10 | 25% | CC(C)Nc1ncc2ccc(C(=O)N[C@H](CO)CC3CCCCC3)cc2n1 [Example 429, N-[(1S)-2-cyclohexyl-1-(hydroxymethyl)ethyl]-2-(isopropylamino)quinazoline-7-carboxamide]
11 | 11% | O=C(NCCO)c1ccc2cnc(NC3CCC3)nc2c1 [Example 430, 2-(cyclobutylamino)-N-(2-hydroxyethyl)quinazoline-7-carboxamide]
12 | 15% | CC(C)Nc1ncc2ccc(C(=O)NCCO)cc2n1 [Example 431, N-(2-hydroxyethyl)-2-(isopropylamino)quinazoline-7-carboxamide]
13 | 15% | CC(C)Nc1ncc2ccc(C(=O)N[C@@H]3COC[C@H]3O)cc2n1 [Example 432, N-((3R,4S)-4-hydroxytetrahydrofuran-3-yl]-2-(isopropylamino)quinazoline-7-carboxamide]
14 | 24% | O=C(N[C@@H]1COC[C@H]1O)c1ccc2cnc(NC3CCC3)nc2c1 [Example 433, 2-(cyclobutylamino)-N-[(3R,4S)-4-hydroxytetrahydrofuran-3-yl]quinazoline-7-carboxamide]
15 | 15% | CC(C)Nc1ncc2ccc(C(=O)N[C@@H](C)CO)cc2n1 [Example 434, N-[(1S)-2-hydroxy-1-methylethyl]-2-(isopropylamino)quinazoline-7-carboxamide]
16 | 22% | O=C(N[C@@H]1COC[C@H]1O)c1ccc2cnc(NC3CCCC3)nc2c1 [Example 435, 2-(cyclopentylamino)-N-[(3R,4S)-4-hydroxytetrahydrofuran-3-yl]quinazoline-7-carboxamide]

Same assay, conditions: @10 uM; read-out: % Inhibition JNK-1

Row | inhibition at 10 µM | Compound
17 | 85% | CC[C@@H](CO)NC(=O)c1ccc2cnc(NC3CCCC3)nc2c1 [Example 436, 2-(cyctopentylamino)-N-[(1S)-1-(hydroxymethyl)propyl]quinazoline-7-carboxamide]
18 | 57% | C[C@@H](CO)NC(=O)c1ccc2cnc(NC3CCC3)nc2c1 [Example 437, 2-(cyclobutylamino)-N-[(1S)-2-hydroxy-1-methylethyl]quinazoline-7-carboxamide]
19 | 63% | CC(C)(CO)NC(=O)c1ccc2cnc(NC3CCCC3)nc2c1 [Example 438, 2-(cyclopentylamino)-N-(2-hydroxy-1,1-dimethylethyl)quinazoline-7-carboxamide]
20 | 44% | CC(C)(CO)NC(=O)c1ccc2cnc(NC3CCC3)nc2c1 [Example 439, 2-(cyclobutylamino)-N-(2-hydroxy-1,1-dimethylethyl)quinazoline-7-carboxamide]
21 | 48% | CC(C)Nc1ncc2ccc(C(=O)NC(C)(C)CO)cc2n1 [Example 440, N-(2-hydroxy-1,1-dimethylethyl)-2-(isopropylamino)quinazoline-7-carboxamide]

Same assay, conditions: JNK-1

Row | Compound | Ki
22 | O=C(NC1(CO)CCCC1)c1ccc2cnc(N[C@H]3CC[C@H](O)CC3)nc2c1 [Example 400, 2-[(trans-4-hydroxycyclohexyl)amino]-N-[1-(hydroxymethyl)cyclopentyl]quinazoline-7-carboxamide] | 478 nM
23 | O=C(NC1(CO)CCCC1)c1ccc2cnc(NC3CCCCC3)nc2c1 [Example 401, 2-(cyclohexylamino)-N-[1-(hydroxymethyl)cyclopentyl]quinazoline-7-carboxamide] | 490 nM
24 | O=C(N[C@H](CO)Cc1ccccc1)c1ccc2cnc(N[C@H]3CC[C@H](O)CC3)nc2c1 [Example 402, N-[(1S)-1-benzyl-2-hydroxyethyl]-2-[(trans-4-hydroxycyclohexyl)amino]quinazoline-7-carboxamide] | 605 nM
25 | C[C@@H](CO)NC(=O)c1ccc2cnc(N[C@H]3CC[C@H](O)CC3)nc2c1 [Example 403, 2-[(trans-4-hydroxycyclohexyl)amino]-N-[(1S)-2-hydroxy-1-methylethyl]quinazoline-7-carboxamide] | 637 nM
26 | O=C(N[C@@H]1COC[C@H]1O)c1ccc2cnc(N[C@H]3CC[C@H](O)CC3)nc2c1 [Example 404, 2-[(trans-4-hydroxycyclohexyl)amino]-N-[(3R,4S)-4-hydroxytetrahydrofuran-3-yl]quinazoline-7-carboxamide] | 667 nM
27 | O=C(N[C@@H]1COC[C@H]1O)c1ccc2cnc(NC3CCCCC3)nc2c1 [Example 405, 2-(cyclohexylamino)-N-[(3R,4S)-4-hydroxytetrahydrofuran-3-yl]quinazoline-7-carboxamide] | 722 nM
28 | CCC[C@@H](CO)NC(=O)c1ccc2cnc(NC(C)C)nc2c1 [Example 406, N-[(1S)-1-(hydroxymethyl)butyl]-2-(isopropylamino)quinazoline-7-carboxamide] | 730 nM
29 | CC(C)[C@@H](CO)NC(=O)c1ccc2cnc(NC3CCCC3)nc2c1 [Example 407, 2-(cyclopentylamino)-N-[(1S)-1-(hydroxymethyl)-2-methylpropyl]quinazoline-7-carboxamide] | 735 nM
30 | O=C(N[C@H](CO)Cc1ccccc1)c1ccc2cnc(NC3CCCC3)nc2c1 [Example 408, N-[(1S)-1-benzyl-2-hydroxyethyl]-2-(cyclopentylamino)quinazoline-7-carboxamide] | 743 nM
31 | CC[C@H](C)[C@@H](CO)NC(=O)c1ccc2cnc(NC(C)C)nc2c1 [Example 409, N-[(1S,2S)-1-(hydroxymethyl)-2-methylbutyl]-2-(isopropylamino)quinazoline-7-carboxamide] | 772 nM
32 | CC[C@@H](CO)NC(=O)c1ccc2cnc(NC(C)C)nc2c1 [Example 411, N-[(1S)-1-(hydroxymethyl)propyl]-2-(isopropylamino)quinazoline-7-carboxamide] | 1100 nM
33 | CC(C)(CO)NC(=O)c1ccc2cnc(NC3CCCCC3)nc2c1 [Example 413, 2-(cyclohexylamino)-N-(2-hydroxy-1,1-dimethylethyl)quinazoline-7-carboxamide] | 1270 nM
34 | CC[C@H](C)[C@@H](CO)NC(=O)c1ccc2cnc(NC3CCC3)nc2c1 [Example 414, 2-(cyclobutylamino)-N-[(1S,2S)-1-(hydroxymethyl)-2-methylbutyl]quinazoline-7-carboxamide] | 1310 nM
35 | CC(C)Nc1ncc2ccc(C(=O)N[C@H](CO)Cc3ccccc3)cc2n1 [Example 415, N-((1S)-1-benzyl-2-hydroxyethyl]2-(isopropylamino)quinazoline-7-carboxamide] | 1490 nM
36 | CC[C@@H](CO)NC(=O)c1ccc2cnc(NC3CCC3)nc2c1 [Example 416, 2-(cyclobutylamino)-N-[(1S)-1-(hydroxymethyl)propyl]quinazoline-7-carboxamide] | 1550 nM
37 | O=C(N[C@H](CO)Cc1c[nH]cn1)c1ccc2cnc(N[C@H]3CC[C@H](O)CC3)nc2c1 [Example 417, 2-[(trans-4-hydroxycyclohexyl)amino]-N-[(1S)-2-hydroxy-1-(1H-imidazol-4-ylmethyl)ethyl]quinazoline-7-carboxamide] | 1680 nM
38 | C[C@@H](CO)NC(=O)c1ccc2cnc(NC3CCCC3)nc2c1 [Example 418, 2-(cyclopentylamino)-N-[(1S)-2-hydroxy-1-methylethyl]quinazoline-7-carboxamide] | 1720 nM
39 | O=C(N[C@H](CO)CC1CCCCC1)c1ccc2cnc(NC3CCCC3)nc2c1 [Example 419, N-[(1S)-2-cyclohexyl-1-(hydroxymethyl)ethyl]-2-(cyclopentylamino)quinazoline-7-carboxamide] | 3030 nM

Second part, the compound after the results:

Row | Ki | Compound
40 | 57 nM | CC[C@@H](CO)NC(=O)c1cccc2cnc(N[C@H]3CC[C@H](O)CC3)nc12 [Example 441, 2-[(trans-4-hydroxycyclohexyl)amino]-N-[(1S)-1-(hydroxymethyl)propyl]quinazoline-8-carboxamide]
41 | 83 nM | CCC(CO)NC(=O)c1cccc2cnc(N[C@H]3CC[C@H](O)CC3)nc12 (stereo partly drawn) [Example 442, 2-[(trans-4-hydroxycyclohexyl)amino]-N-[1-(hydroxymethyl)propyl]quinazoline-8-carboxamide]

Reference: patent US7998978B2 (Pfizer Inc., priority 2006, dated 2011)
